{
  "source": "patent US20210325406A1",
  "about": "(priority 2018, published 2021)",
  "molecules": {"B1": {"name": "78-nt: 78 nucleotide ssDNA composed of a random sequence (Table 6) (nucleic acid)", "DNA": "AAGCAGACAGGCGGGAAGGTTTTTTTTCTAGAGGGGAATTGTTATCCGCTCACAATTCCCCTATAGTGAGTCGTATTA", "modifications": "DNA, backbone and methylation of C not given here"}},
  "key": {"Au(III) embedded MspA-M [1]": {"target": "T1, Au(III) embedded MspA-M (Mycolicibacterium smegmatis, UniProt A0QR29, D117N/D118M/D120N/D145R/D161R/E166K)", "T1 sequence (A0QR29 28-211 D117N/D118M/D120N/D145R/D161R/E166K limits assumed)": "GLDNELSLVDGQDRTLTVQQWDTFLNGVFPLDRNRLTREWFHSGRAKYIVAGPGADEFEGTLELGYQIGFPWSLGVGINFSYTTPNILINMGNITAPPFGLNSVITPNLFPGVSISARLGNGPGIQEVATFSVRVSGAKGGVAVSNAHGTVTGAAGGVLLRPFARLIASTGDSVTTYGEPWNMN", "assay_type": "binding"}, "Au(III) embedded MspA-M [2]": {"target": "T1, Au(III) embedded MspA-M", "assay_type": "binding", "remark": "listed apart in the source"}, "[3]": {"target": "[AuCl4]− embedded MspA-M nanopore (Mycolicibacterium smegmatis, UniProt A0QR29, D117N/D118M/D120N/D145R/D161R/E166K)", "sequence (A0QR29 28-211 D117N/D118M/D120N/D145R/D161R/E166K)": "as the sequence (A0QR29 28-211 D117N/D118M/D120N/D145R/D161R/E166K limits assumed) above"}},
  "note": "“And” between values parts separate entries of the source, which are not always exact repeats. Equal values may be shown once. “Also recorded” adds a separate entry of the source. Read-outs that look alike come from different tables or passages of the source.",
  "data": [
    {"molecule": "N[C@@H](CS)C(=O)O", "note": "[L-Cysteine, L-cysteine]", "values": [
      {"measurement": "ΔI0−1, cys/I0", "setting": "Au(III) embedded MspA-M [1]", "result": "0.104±0.008 and 0.105 ± 0.008 and 0.104 ± 0.007"},
      {"measurement": "ΔI1−1, Cys", "setting": "Au(III) embedded MspA-M [1]", "result": "13.7 pA and 13.1 pA and 14.2 pA"}
    ]},
    {"molecule": "N[C@@H](CCC(=O)N[C@@H](CS)C(=O)NCC(=O)O)C(=O)O", "note": "[L-Glutathione, L-glutathione]", "values": [
      {"measurement": "ΔI0−1, GSH/I0", "setting": "Au(III) embedded MspA-M [1]", "result": "0.167 ± 0.023 and 0.151 ± 0.015 and 0.145 ± 0.015"},
      {"measurement": "ΔI1−1, GSH", "setting": "Au(III) embedded MspA-M [1]", "result": "23.3 pA and 29.2 pA and 25.1 pA"}
    ]},
    {"molecule": "N[C@@H](CCS)C(=O)O", "note": "[L-Homocysteine, L-homocysteine]", "values": [
      {"measurement": "ΔI0−1, Hcy/I0", "setting": "Au(III) embedded MspA-M [1]", "result": "0.13±0.01 and 0.123 ± 0.01 and 0.129 ± 0.01 and 0.131 ± 0.01"},
      {"measurement": "ΔI1−1, Hcy", "setting": "Au(III) embedded MspA-M [1]", "result": "21.8 pA and 22.7 pA and 23.6 pA"}
    ]},
    {"molecule": "CSCC[C@H](N)C(=O)O", "note": "[L-Methionine, L-methionine]", "values": [
      {"measurement": "absolute blockage amplitude from single L-methionine", "setting": "Au(III) embedded MspA-M [2]", "result": "approximately 37 pA"},
      {"measurement": "amplitude, times larger than previously reported amino acid sensing using engineered α-HL", "setting": "Au(III) embedded MspA-M [2]", "result": "about 10 times"},
      {"measurement": "dwell time of state 3, three independent measurements", "setting": "Au(III) embedded MspA-M [2]", "result": "10.05 ± 1.73", "unit": "ms"},
      {"measurement": "ΔI1-3, three independent measurements", "setting": "Au(III) embedded MspA-M [2]", "result": "48.67±0.91", "unit": "pA"}
    ]},
    {"molecule": "NC(=O)C[C@H](N)C(=O)O", "note": "[L-asparagine, reference compound]", "values": [
      {"measurement": "events like state 3 / extra sensing signals", "setting": "Au(III) embedded MspA-M [2]", "result": "No extra sensing signals; also recorded: no events at all like state 3"}
    ]},
    {"molecule": "NCC(=O)O", "note": "[L-glycine, reference compound]", "values": [
      {"measurement": "events like state 3 / extra sensing signals", "setting": "Au(III) embedded MspA-M [2]", "result": "No extra sensing signals; also recorded: no events at all like state 3"}
    ]},
    {"molecule": "B1", "values": [
      {"measurement": "ΔI/I0", "setting": "[3]; 78-nt ssDNA 4 μM, 10 μM HAuCl4, +100 mV, Blockade level 0", "result": "0.23 ± 0.027"},
      {"measurement": "Mean dwell time", "setting": "[3]; 78-nt, Blockade level 0", "result": "0.23 ± 0.025", "unit": "ms"},
      {"measurement": "Mean dwell time", "setting": "[3]; 78-nt, Blockade level 1", "result": "0.97 ± 0.17", "unit": "ms"},
      {"measurement": "ΔI/I0", "setting": "[3]; 78-nt, Blockade level 1", "result": "0.37 ± 0.042"},
      {"measurement": "Mean dwell time", "setting": "[3]; 78-nt, Blockade level 2", "result": "5.52 ± 1.14", "unit": "ms"},
      {"measurement": "ΔI/I0", "setting": "[3]; 78-nt, Blockade level 2", "result": "0.59 ± 0.019"},
      {"measurement": "Mean dwell time", "setting": "[3]; 78-nt, Blockade level 3", "result": "72.81 ± 13.98", "unit": "ms"},
      {"measurement": "ΔI/I0", "setting": "[3]; 78-nt, Blockade level 3", "result": "0.88 ± 0.035"}
    ]}
  ]
}
